Literature values, collected in patent US20210145863A1, “LUBRICATED SUBSTRATES COMPRISING LAMBDA-CARRAGEENAN” (priority 2018, published 2021).

Test system: HPV
Settings: in vitro (Buck, C. B., et al.)

lambda-carrageenan
Activity against HPV: active
